Measurements published in patent publication US20090105126A1 (priority 2007, published 2009).
“And” between values parts separate entries of the source, which are not always exact repeats. Identical values can stand only once. Like-named read-outs stand apart in the source and are kept apart here.

Assays:
[1] = Fluorescence anisotropy of entrapped calcein; assay type: physicochemical; conditions: calcein probe, excitation 495 nm, emission 520 nm; higher value = more viscous
Description: DPPC was added by ethanol injection to make 5 mg/ml liposome at 50° C. […] Fluorescence anisotropy was measured at an excitation wavelength of 495 nm and emission wavelength of 520 nm. Fluorescence anisotropy is an order parameter, which ranged from 0 to 0.4 in aqueous solution. The higher value indicates more viscous solution.

[2] = Concentration of vancomycin in the lungs of mice after inhalation therapy (Example 8); conditions: for [VANCOMYCIN] in Lung, animals n/N (second line of cell): Inhalation, BID x 3; for Vancomycin (μg/g), mean / Vancomycin (μg/lung), mean / Vancomycin (μg/g), individual mice / Vancomycin (μg/lung), individual mice: 4 days after inhalation therapy; for Vancomycin (μg/g), mean / Vancomycin (μg/lung), mean: group mean; for Vancomycin (μg/g), individual mice / Vancomycin (μg/lung), individual mice: listed as Soluble Vancomycin
Description: The instillation was performed through the nostrils route using micropipette with tips (Gilson, calibrated with Femt Scientific). The mouse is held by its ears and 20 μl of bacteria are gradually (2 μl per breath) released into the nostrils (10 μl in each nostril) with the help of a micro-pipette. The mice were observed every 10 min until they fully recovered from the anesthesia.
There were 5 groups and each group had 12 mice. […] Mice in group 5 received sterile normal saline (0.9% NaCl) by inhalation.

[3] = test system: S. pneumoniae (ATCC 6303); conditions: for Log CFU/Lung, animals n/N (second line of cell) / Log CFU/mL of Blood, animals n/N (second line of cell) / Log CFU/mL of Blood: Inhalation, BID x 3; for Log CFU/mL of Blood: animals surviving until Day 7; for mice in which S. pneumoniae in the lungs was not eradicated: mice surviving to day 7
Description: Sixty (60) Thirty six (36) female mice (Swiss Webster, Charles River) were received in the vivarium and acclimated for at least 7 days prior to initiation of the protocol. All mice were instilled via nasal insufflation with S. pneumoniae (ATCC, 6303, 4.1×10^4 CFU/ mice) after being anesthetized with Ketamine/Xylazine solution (80 mg/kg and 10 mg/kg). The instillation was performed through the nostrils route using micropipette with tips (Gilson, calibrated with Femt Scientific). The mouse is held by its ears and 20 μl of bacteria are gradually (2 μl per breath) released into the nostrils (10 μl in each nostril) with the help of a micro-pipette. The mice were observed every 10 min until they fully recovered from the anesthesia.
Mice were dosed on days 1, 2 and 3. There were 5 groups and each group had 12 mice. […] Mice in group 5 received sterile normal saline (0.9% NaCl) by inhalation.
Determination of bacterial colonies in the lung and blood of mice. Mice that were euthanized prior to day 7 and mice that survived to day 7 were euthanized by CO2 asphyxiation. The blood was collected by cardiac puncture after euthanization. A 1/10 dilution of blood was made in BHI broth immediately. The lungs were removed aseptically, weighed and placed into 1 ml of BHI broth in a sterile 5 ml Polypropylene round-bottom tube.
Lungs were homogenized sterilely with a Polytron^R (Brinkmann, Rexdale, Ontario, Canada) using the maximum speed in the 5 ml Polypropylene round-bottom tube. The tissues were homogenized until a smooth. Ten-fold dilutions of the lung homogenates were made in BHI broth supplemented with 10 ug/ml of Colistin(C) 5 ug/ml of Oxolinic (O). One hundred (100) ul of each dilution of lung homogenates were plated out onto CBO agar plates and spread. The plates were incubated for 24 hours at 37° C. then colonies were counted.

[4] = test system: S. pneumoniae (ATCC 6303)
Description: Thirty six (36) female mice (Swiss Webster, Charles River) were received in the vivarium and acclimated for at least 7 days prior to initiation of the protocol. […] Mice were dosed on days 1, 2 and 3. […] Mice in Group 3 received 20 min inhalation with sterile 0.9% NaCl for inhalation (Cardinal, Lot #WBA194). Euthanization and determination of bacterial colonies in blood and lungs were performed as described in Example 8.

[5] = Intraperitoneal, BID x 3, 12 mg/kg/day
[6] = Intraperitoneal, BID x 3, 12 mg/kg/day, animals surviving until Day 7
[7] = intraperitoneal injection 6 mg/kg BID

CN[C@H](CC(C)C)C(=O)N[C@H]1C(=O)N[C@@H](CC(N)=O)C(=O)N[C@H]2C(=O)N[C@H]3C(=O)N[C@H](C(=O)N[C@H](C(=O)O)c4cc(O)cc(O)c4-c4cc3ccc4O)[C@H](O)c3ccc(c(Cl)c3)Oc3cc2cc(c3O[C@@H]2O[C@H](CO)[C@@H](O)[C@H](O)[C@H]2O[C@H]2C[C@](C)(N)[C@H](O)[C@H](C)O2)Oc2ccc(cc2Cl)[C@H]1O [Vancomycin solution (15 mg/ml), vancomycin]
Fluorescence anisotropy [1]: 0.014

CN[C@H](CC(C)C)C(=O)N[C@H]1C(=O)N[C@@H](CC(N)=O)C(=O)N[C@H]2C(=O)N[C@H]3C(=O)N[C@H](C(=O)N[C@H](C(=O)O)c4cc(O)cc(O)c4-c4cc3ccc4O)[C@H](O)c3ccc(c(Cl)c3)Oc3cc2cc(c3O[C@@H]2O[C@H](CO)[C@@H](O)[C@H](O)[C@H]2O[C@H]2C[C@](C)(N)[C@H](O)[C@H](C)O2)Oc2ccc(cc2Cl)[C@H]1O [Vancomycin solution (300 mg/ml), vancomycin]
Fluorescence anisotropy [1]: 0.17

CN[C@H](CC(C)C)C(=O)N[C@H]1C(=O)N[C@@H](CC(N)=O)C(=O)N[C@H]2C(=O)N[C@H]3C(=O)N[C@H](C(=O)N[C@H](C(=O)O)c4cc(O)cc(O)c4-c4cc3ccc4O)[C@H](O)c3ccc(c(Cl)c3)Oc3cc2cc(c3O[C@@H]2O[C@H](CO)[C@@H](O)[C@H](O)[C@H]2O[C@H]2C[C@](C)(N)[C@H](O)[C@H](C)O2)Oc2ccc(cc2Cl)[C@H]1O [Vancomycin, vancomycin]
[VANCOMYCIN] in Lung, animals n/N (second line of cell) ([2]; 3.8 mg/kg/day): 12/12
[VANCOMYCIN] in Lung, animals n/N (second line of cell) ([2]; 6.0 mg/kg/day): 12/12
Vancomycin (μg/g), mean ([2]; inhaled 3.8 mg/kg): 34 µg/g
Vancomycin (μg/lung), mean ([2]; inhaled 3.8 mg/kg): 5 μg/lung
Vancomycin (μg/g), individual mice ([2]; inhaled 3.8 mg/kg): 14.0 µg/g and 37.0 µg/g
Vancomycin (μg/lung), individual mice ([2]; inhaled 3.8 mg/kg): 5.8 μg/lung and 5.2 μg/lung (2×) and 6.8 μg/lung and 3.4 μg/lung and 4.7 μg/lung (2×) and 5.9 μg/lung and 2.0 μg/lung and 3.6 μg/lung and 8.1 μg/lung and 6.1 μg/lung
Vancomycin (μg/g), mean ([2]; inhaled 6 mg/kg): 61 µg/g
Vancomycin (μg/lung), mean ([2]; inhaled 6 mg/kg): 10 μg/lung
Vancomycin (μg/g), individual mice ([2]; inhaled 6 mg/kg): 42.0 µg/g and 59.0 µg/g and 66.0 µg/g
Vancomycin (μg/lung), individual mice ([2]; inhaled 6 mg/kg): 7.6 μg/lung and 8.8 μg/lung and 6.4 μg/lung and 9.7 μg/lung and 9.0 μg/lung and 9.3 μg/lung and 8.3 μg/lung and 14.0 μg/lung and 9.8 μg/lung
mice showing bacterial level in lungs ([3]; 3.8 mg/kg/day, 7 days, FIG. 8): > 90%
bacterial level in lungs ([3]; 6.0 mg/kg/day, 7 days, FIG. 8): still showed substantial bacterial level
Log CFU/Lung, animals n/N (second line of cell) ([3]; 3.8 mg/kg/day): 11/12
Log CFU/mL of Blood, animals n/N (second line of cell) ([3]; 3.8 mg/kg/day): 0/12
Log CFU/mL of Blood ([3]; 3.8 mg/kg/day): 0 Log CFU/mL
Log CFU/Lung, animals n/N (second line of cell) ([3]; 6.0 mg/kg/day): 12/12
Log CFU/mL of Blood, animals n/N (second line of cell) ([3]; 6.0 mg/kg/day): 0/12
Log CFU/mL of Blood ([3]; 6.0 mg/kg/day): 0 Log CFU/mL
Log10 CFU/lung, individual mice ([3]; inhalation 3.8 mg/kg for 3 days, day 7, 1 = limit of detection, no colonies detected): 1 Log10 CFU/lung and 2 Log10 CFU/lung
mice in which S. pneumoniae in the lungs was not eradicated ([3]; inhaled 3.8 mg/kg): 92%
bacteria in blood ([3]; inhaled 6 mg/kg and 3.8 mg/kg, day 7): no bacteria in their blood
mice in which S. pneumoniae in the lungs was not eradicated ([3]; inhaled 6 mg/kg): 100%
Survival ([3]; inhaled, 6 or 3.8 mg/kg/day on days 1, 2 and 3, 12 mice per group, FIG. 4): 100%
Log CFU/Lung, animals n/N (second line of cell) [4, 5]: 3/12
Log CFU/mL of Blood, animals n/N (second line of cell) [4, 5]: 5/12
Log CFU/Lung [4, 6]: 0.7 ± 1.3 Log CFU/Lung
Log CFU/mL of Blood [4, 6]: 1.7 ± 2.1 Log CFU/mL
mice in which S. pneumoniae in the lungs was not eradicated [4, 7]: 25%
mice in which S. pneumoniae was not eradicated from the blood [4, 7]: 42%
mice surviving to day 7 ([4]; intraperitoneal injection 6 mg/kg BID, days 1, 2 and 3, n=12): 100%
vancomycin in the lungs (IP 12 mg/kg/day, day seven, listed as free vancomycin, 12 mg/kg/day): no vancomycin deposition in lung was detected
vancomycin in the lungs (IP injections, 4 days after the end of therapy): No detectable concentrations
initial daily lung dose (IP, based on 4% of the delivered dose in the lungs 30 min post IP injections): 15 ug of vancomycin/lung
[VANCOMYCIN] in Lung, animals n/N (second line of cell) [5]: 0/12
[VANCOMYCIN] in Lung [6]: 0 mg/g
vancomycin after IP injection (Six (6) hours after IP injection, Swiss Webster mice): no detectable vancomycin was observed
